From patent US20240299385A1 (ReWind Therapeutics NV, priority 2021, published 2024)

Biological target: T1, human GPR17 receptor (Homo sapiens, UniProt Q13304)
T1 construct: host or cells: HEK-293
Test: Calcium mobilization functional assay (Fluo-8, FLIPR TETRA) in HEK-293 hGPR17 (Gα-q assay)
Assay type: cell-based
Conditions: antagonism of MDL29,951 (~EC80) induced Ca2+ signal; cell line (HEK-293 hGPR17 or HEK-293 Suchi5 hGPR17) not given
Procedure, shortened: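 Fluo-8-loaded HEK-293 hGPR17 cells (60 min dye loading, room temperature) were preincubated with compound for twenty minutes, then challenged with agonist MDL29,951 at ~EC80, 500 nM. Intracellular calcium release via Gα-q was recorded as FLIPR fluorescence for a further 2 minutes; compounds tested in duplicate.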

T1 sequence (Q13304 whole entry): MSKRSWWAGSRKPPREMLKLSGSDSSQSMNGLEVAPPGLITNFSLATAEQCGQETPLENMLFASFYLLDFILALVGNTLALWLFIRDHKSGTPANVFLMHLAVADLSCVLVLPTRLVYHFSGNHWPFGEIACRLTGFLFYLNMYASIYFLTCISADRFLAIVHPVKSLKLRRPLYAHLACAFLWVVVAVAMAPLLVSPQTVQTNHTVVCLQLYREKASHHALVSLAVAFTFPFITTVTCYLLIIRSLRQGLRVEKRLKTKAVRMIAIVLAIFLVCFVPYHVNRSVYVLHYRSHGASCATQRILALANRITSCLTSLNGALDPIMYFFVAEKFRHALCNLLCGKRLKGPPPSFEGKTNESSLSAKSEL

IC50 [nM]	SMILES
< 500	O=S(=O)(Nc1cc(F)c(OC(F)F)cc1F)c1c[nH]c(-c2ccoc2)c1 [Cpd 474, N-[4-(difluoromethoxy)-2,5-difluorophenyl]-5-(furan-3-yl)-1H-pyrrole-3-sulfonamide]
< 500	O=S(=O)(Nc1cc(F)c(OC(F)F)cc1F)c1c[nH]c(-c2cccs2)c1 [Cpd 475, N-[4-(difluoromethoxy)-2,5-difluorophenyl]-5-thiophen-2-yl-1H-pyrrole-3-sulfonamide]
< 500	O=S(=O)(Nc1cc(F)c(OC(F)F)cc1F)c1c[nH]c(-c2ccsc2)c1 [Cpd 476, N-[4-(difluoromethoxy)-2,5-difluorophenyl]-5-thiophen-3-yl-1H-pyrrole-3-sulfonamide]
< 500	O=S(=O)(Nc1cc(F)c(Br)cc1F)c1c[nH]c(-c2ccoc2)c1 [Cpd 477, N-(4-bromo-2,5-difluorophenyl)-5-(furan-3-yl)-1H-pyrrole-3-sulfonamide]
< 500	O=S(=O)(Nc1cc(F)c(Br)cc1F)c1c[nH]c(-c2cccs2)c1 [Cpd 478, N-(4-bromo-2,5-difluorophenyl)-5-(thiophen-2-yl)-1H-pyrrole-3-sulfonamide]
< 500	O=S(=O)(Nc1cc(F)c(Br)cc1F)c1c[nH]c(-c2ccsc2)c1 [Cpd 479, N-(4-bromo-2,5-difluorophenyl)-5-thiophen-3-yl-1H-pyrrole-3-sulfonamide]
< 500	COc1cccc(Cc2c[nH]cc2S(=O)(=O)Nc2cc(F)c(OC(F)F)cc2F)c1 [Cpd 480, N-[4-(difluoromethoxy)-2,5-difluorophenyl]-4-[(3-methoxyphenyl)methyl]-1H-pyrrole-3-sulfonamide]
500 to 5000	O=S(=O)(Nc1cc(F)c(C(F)(F)F)cc1F)c1c[nH]cc1Cc1cccc(F)c1 [Cpd 481, N-[2,5-difluoro-4-(trifluoromethyl)phenyl]-4-[(3-fluorophenyl)methyl]-1H-pyrrole-3-sulfonamide]
500 to 5000	COc1cccc(Cc2c[nH]cc2S(=O)(=O)Nc2cc(F)c(C(F)(F)F)cc2F)c1 [Cpd 482, N-[2,5-difluoro-4-(trifluoromethyl)phenyl]-4-[(3-methoxyphenyl)methyl]-1H-pyrrole-3-sulfonamide]
500 to 5000	O=S(=O)(Nc1cc(F)c(OC(F)F)cc1F)c1c[nH]cc1Cc1cccc(OC(F)F)c1 [Cpd 483, N-[4-(difluoromethoxy)-2,5-difluorophenyl]-4-[[3-(difluoromethoxy)phenyl]methyl]-1H-pyrrole-3-sulfonamide]
< 500	O=S(=O)(Nc1cc(F)c(OC(F)F)cc1F)c1c[nH]cc1Cc1ccccc1F [Cpd 484, N-[4-(difluoromethoxy)-2,5-difluorophenyl]-4-[(2-fluorophenyl)methyl]-1H-pyrrole-3-sulfonamide]
500 to 5000	O=S(=O)(Nc1cc(F)c(OC(F)F)cc1F)c1c[nH]cc1Cc1ccc(F)cc1 [Cpd 485, N-[4-(difluoromethoxy)-2,5-difluorophenyl]-4-[(4-fluorophenyl)methyl]-1H-pyrrole-3-sulfonamide]
500 to 5000	Cc1ccc(Cc2c[nH]cc2S(=O)(=O)Nc2ccc(C#N)cc2F)s1 [Cpd 486, N-(4-cyano-2-fluorophenyl)-4-[(5-methylthiophen-2-yl)methyl]-1H-pyrrole-3-sulfonamide]
500 to 5000	COc1ccc(Cl)cc1-c1cc(S(=O)(=O)Nc2ccc(C#N)cc2F)c[nH]1 [Cpd 488, 5-(5-chloro-2-methoxyphenyl)-N-(4-cyano-2-fluorophenyl)-1H-pyrrole-3-sulfonamide]
< 500	N#Cc1ccc(NS(=O)(=O)c2c[nH]c(-c3c(F)cc(F)cc3F)c2)c(F)c1 [Cpd 489, N-(4-cyano-2-fluorophenyl)-5-(2,4,6-trifluorophenyl)-1H-pyrrole-3-sulfonamide]
5000 to 50000	CC(=O)c1cccc(Cc2c[nH]cc2S(=O)(=O)Nc2ccc(C#N)cc2F)c1 [Cpd 490, 4-[(3-acetylphenyl)methyl]-N-(4-cyano-2-fluorophenyl)-1H-pyrrole-3-sulfonamide]
5000 to 50000	N#Cc1ccc(NS(=O)(=O)c2c[nH]c(Cc3ccccn3)c2)c(F)c1 [Cpd 491, N-(4-cyano-2-fluorophenyl)-5-(pyridin-2-ylmethyl)-1H-pyrrole-3-sulfonamide]
500 to 5000	N#Cc1cc(F)c(NS(=O)(=O)c2c[nH]c(-c3c(F)cc(F)cc3F)c2)cc1Cl [Cpd 492, N-(5-chloro-4-cyano-2-fluorophenyl)-5-(2,4,6-trifluorophenyl)-1H-pyrrole-3-sulfonamide]
< 500	O=S(=O)(Nc1nc(F)c(OCCF)cc1F)c1c[nH]c(-c2ccccc2)c1 [Cpd 494, N-[3,6-difluoro-5-(2-fluoroethoxy)pyridin-2-yl]-5-phenyl-1H-pyrrole-3-sulfonamide]
500 to 5000	Cc1cc(NS(=O)(=O)c2c[nH]c(-c3c(F)cc(F)cc3F)c2)c(F)cc1C#N [Cpd 495, N-(4-cyano-2-fluoro-5-methylphenyl)-5-(2,4,6-trifluorophenyl)-1H-pyrrole-3-sulfonamide]

IC50 [nM]	SMILES
500 to 5000	O=S(=O)(Nc1cc(F)c(OCC(F)F)cc1F)c1c[nH]cc1-c1cccc(F)c1 [Cpd 496, N-[4-(2,2-difluoroethoxy)-2,5-difluorophenyl]-4-(3-fluorophenyl)-1H-pyrrole-3-sulfonamide]
< 500	N#Cc1cc(F)c(NS(=O)(=O)c2c[nH]cc2-c2cccc(F)c2)cc1F [Cpd 497, N-(4-cyano-2,5-difluorophenyl)-4-(3-fluorophenyl)-1H-pyrrole-3-sulfonamide]
500 to 5000	Cc1nc(-c2cc(S(=O)(=O)Nc3ccc(C#N)cc3F)c[nH]2)ccc1F [Cpd 498, N-(4-cyano-2-fluorophenyl)-5-(5-fluoro-6-methylpyridin-2-yl)-1H-pyrrole-3-sulfonamide]
5000 to 50000	N#Cc1ccc(NS(=O)(=O)c2c[nH]c(-c3ccc(Cl)cn3)c2)c(F)c1 [Cpd 499, 5-(5-chloropyridin-2-yl)-N-(4-cyano-2-fluorophenyl)-1H-pyrrole-3-sulfonamide]
5000 to 50000	Cc1ccc(-c2cc(S(=O)(=O)Nc3ccc(C#N)cc3F)c[nH]2)nc1 [Cpd 500, N-(4-cyano-2-fluorophenyl)-5-(5-methylpyridin-2-yl)-1H-pyrrole-3-sulfonamide]
500 to 5000	O=S(=O)(Nc1nc(F)c(OCCF)cc1F)c1c[nH]cc1Cc1ccccc1 [Cpd 501, 4-benzyl-N-[3,6-difluoro-5-(2-fluoroethoxy)pyridin-2-yl]-1H-pyrrole-3-sulfonamide]
< 500	N#Cc1ccc(NS(=O)(=O)c2c[nH]c(-c3cccc(F)n3)c2)c(F)c1 [Cpd 502, N-(4-cyano-2-fluorophenyl)-5-(6-fluoropyridin-2-yl)-1H-pyrrole-3-sulfonamide]
500 to 5000	Cc1ccnc(-c2cc(S(=O)(=O)Nc3ccc(C#N)cc3F)c[nH]2)c1 [Cpd 503, N-(4-cyano-2-fluorophenyl)-5-(4-methylpyridin-2-yl)-1H-pyrrole-3-sulfonamide]
< 500	Cc1cccc(-c2cc(S(=O)(=O)Nc3ccc(C#N)cc3F)c[nH]2)n1 [Cpd 504, N-(4-cyano-2-fluorophenyl)-5-(6-methylpyridin-2-yl)-1H-pyrrole-3-sulfonamide]
5000 to 50000	O=C1C=C(c2cc(S(=O)(=O)Nc3cc(F)c(C(F)(F)F)cc3F)c[nH]2)CC1 [Cpd 505, N-(2,5-difluoro-4-(trifluoromethyl)phenyl)-5-(3-oxocyclopent-1-en-1-yl)-1H-pyrrole-3-sulfonamide]
500 to 5000	CN(C)c1ccccc1-c1cc(S(=O)(=O)Nc2ccc(C#N)cc2F)c[nH]1 [Cpd 506, N-(4-cyano-2-fluorophenyl)-5-[2-(dimethylamino)phenyl]-1H-pyrrole-3-sulfonamide]
500 to 5000	N#Cc1ccc(NS(=O)(=O)c2c[nH]c(-c3cc(Cl)c(F)cc3F)c2)c(F)c1 [Cpd 507, 5-(5-chloro-2,4-difluorophenyl)-N-(4-cyano-2-fluorophenyl)-1H-pyrrole-3-sulfonamide]
< 500	N#Cc1cc(F)c(NS(=O)(=O)c2c[nH]c(-c3cc(Cl)ccc3F)c2)cc1F [Cpd 508, 5-(5-chloro-2-fluorophenyl)-N-(4-cyano-2,5-difluorophenyl)-1H-pyrrole-3-sulfonamide]
< 500	N#Cc1cc(F)c(NS(=O)(=O)c2c[nH]c(-c3ccc(F)cc3)c2)cc1F [Cpd 509, N-(4-cyano-2,5-difluorophenyl)-5-(4-fluorophenyl)-1H-pyrrole-3-sulfonamide]
< 500	N#Cc1cc(F)c(NS(=O)(=O)c2c[nH]c(-c3ccc(F)cc3F)c2)cc1F [Cpd 510, N-(4-cyano-2,5-difluorophenyl)-5-(2,4-difluorophenyl)-1H-pyrrole-3-sulfonamide]
< 500	Cc1cc(NS(=O)(=O)c2c[nH]c(-c3ccccc3F)c2)c(F)cc1C#N [Cpd 511, N-(4-cyano-2-fluoro-5-methylphenyl)-5-(2-fluorophenyl)-1H-pyrrole-3-sulfonamide]
< 500	Cc1cc(NS(=O)(=O)c2c[nH]c(-c3cc(Cl)ccc3F)c2)c(F)cc1C#N [Cpd 512, 5-(5-chloro-2-fluorophenyl)-N-(4-cyano-2-fluoro-5-methylphenyl)-1H-pyrrole-3-sulfonamide]
500 to 5000	Cc1cc(NS(=O)(=O)c2c[nH]c(-c3ccc(F)cc3)c2)c(F)cc1C#N [Cpd 513, N-(4-cyano-2-fluoro-5-methylphenyl)-5-(4-fluorophenyl)-1H-pyrrole-3-sulfonamide]
500 to 5000	Cc1cc(NS(=O)(=O)c2c[nH]c(-c3ccc(F)cc3F)c2)c(F)cc1C#N [Cpd 514, N-(4-cyano-2-fluoro-5-methylphenyl)-5-(2,4-difluorophenyl)-1H-pyrrole-3-sulfonamide]
< 500	O=S(=O)(Nc1cc(F)c(OC(F)F)cc1F)c1c[nH]c(-c2cccc(Cl)n2)c1 [Cpd 515, 5-(6-chloropyridin-2-yl)-N-[4-(difluoromethoxy)-2,5-difluorophenyl]-1H-pyrrole-3-sulfonamide]
